# Measured values reported in patent US8071768B2, “Alkylquinoline and alkylquinazoline kinase modulators” (Janssen Pharmaceutica, N.V., priority 2005, dated 2011).
# Target: T1, TrkB (Homo sapiens, UniProt Q16620)
# T1 construct: purchased Upstate 14-507M
# Assay: Trk B Fluorescence Polarization Kinase Assay
# Type: biochemical
# Conditions: uncertainty ±10%
# Outline: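 The TrkB kinase reaction (50 nM enzyme, 20 ug/mL poly Glu4Tyr, 150 uM ATP, 5 mM MgCl2, 1% DMSO) ran 30 minutes at room temperature and was stopped with EDTA. Phosphorylation was detected by fluorescence-polarization displacement of a fluorescein phosphopeptide from an anti-phosphotyrosine antibody. IC50 came from a variable-slope sigmoidal fit of triplicates.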
# T1 sequence (Q16620 32-822): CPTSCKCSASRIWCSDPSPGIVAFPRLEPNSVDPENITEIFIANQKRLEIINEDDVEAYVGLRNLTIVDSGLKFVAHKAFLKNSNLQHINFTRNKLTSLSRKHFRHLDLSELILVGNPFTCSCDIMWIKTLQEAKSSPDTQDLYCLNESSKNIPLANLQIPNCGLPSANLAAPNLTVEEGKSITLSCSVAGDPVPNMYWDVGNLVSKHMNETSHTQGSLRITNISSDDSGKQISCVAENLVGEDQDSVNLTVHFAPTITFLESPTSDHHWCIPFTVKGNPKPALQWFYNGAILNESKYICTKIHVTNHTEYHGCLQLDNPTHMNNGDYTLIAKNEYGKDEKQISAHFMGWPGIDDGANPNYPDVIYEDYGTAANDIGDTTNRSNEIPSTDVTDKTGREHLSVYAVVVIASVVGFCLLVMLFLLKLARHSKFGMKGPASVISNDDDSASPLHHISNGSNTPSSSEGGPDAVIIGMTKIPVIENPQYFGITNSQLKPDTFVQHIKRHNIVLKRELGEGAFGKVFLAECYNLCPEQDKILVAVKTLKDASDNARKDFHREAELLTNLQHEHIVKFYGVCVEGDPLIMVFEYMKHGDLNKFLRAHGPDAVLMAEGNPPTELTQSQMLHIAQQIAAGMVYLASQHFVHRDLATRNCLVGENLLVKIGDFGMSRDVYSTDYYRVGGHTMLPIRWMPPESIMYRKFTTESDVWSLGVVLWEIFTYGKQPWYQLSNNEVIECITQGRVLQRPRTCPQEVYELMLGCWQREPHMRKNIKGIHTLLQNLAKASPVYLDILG
row,SMILES,IC50 [µM]
1,"O=C(Nc1ccc(N2CCOCC2)cc1)N1CCC(c2ncnc3cc(N4CCC[C@@H]4CO)ccc23)CC1 [Compound 132, (R)-4-[7-(2-Hydroxymethyl-pyrrolidin-1-yl)-quinazolin-4-yl]-piperidine-1-carboxylic acid (4-morpholin-4-yl-phenyl)-amide]",> 42
2,"O=C(Nc1ccc(N2CCOCC2)cc1)N1CCC(c2ncnc3cc(OCCCN4CCOCC4)ccc23)CC1 [Compound 133, 4-[7-(3-Morpholin-4-yl-propoxy)-quinazolin-4-yl]-piperidine-1-carboxylic acid (4-morpholin-4-yl-phenyl)-amide]",> 42
3,"CCN(CC)CCCOc1ccc2c(C3CCN(C(=O)Nc4ccc(N5CCOCC5)cc4)CC3)ncnc2c1 [Compound 134, 4-[7-(3-Diethylamino-propoxy)-quinazolin-4-yl]-piperidine-1-carboxylic acid (4-morpholin-4-yl-phenyl)-amide]",> 42
4,"CN1CCN(c2ccc3c(C4CCN(C(=O)Nc5ccc(N6CCOCC6)cc5)CC4)ncnc3c2)CC1 [Compound 135, 4-[7-(4-Methyl-piperazin-1-yl)-quinazolin-4-yl]-piperidine-1-carboxylic acid (4-morpholin-4-yl-phenyl)-amide]",> 42
5,"CCN1CCN(c2ccc3c(C4CCN(C(=O)Nc5ccc(N6CCOCC6)cc5)CC4)ncnc3c2)CC1 [Compound 136, 4-[7-(4-Ethyl-piperazin-1-yl)-quinazolin-4-yl]-piperidine-1-carboxylic acid (4-morpholin-4-yl-phenyl)-amide]",> 42
6,"O=C(Nc1ccc(N2CCOCC2)cc1)N1CCC(c2ncnc3cc(N4CCN(CCO)CC4)ccc23)CC1 [Compound 137, 4-{7-[4-(2-Hydroxy-ethyl)-piperazin-1-yl]-quinazolin-4-yl}-piperidine-1-carboxylic acid (4-morpholin-4-yl-phenyl)-amide]",> 42
7,"CN1CCCN(c2ccc3c(C4CCN(C(=O)Nc5ccc(N6CCOCC6)cc5)CC4)ncnc3c2)CC1 [Compound 138, 4-[7-(4-Methyl-[1,4]diazepan-1-yl)-quinazolin-4-yl]-piperidine-1-carboxylic acid (4-morpholin-4-yl-phenyl)-amide]",> 42
8,"O=C(Nc1ccc(N2CCOCC2)cc1)N1CCC(c2ncnc3cc(N4CCC[C@H]4CO)ccc23)CC1 [Compound 139, (S)-4-[7-(2-Hydroxymethyl-pyrrolidin-1-yl)-quinazolin-4-yl]-piperidine-1-carboxylic acid (4-morpholin-4-yl-phenyl)-amide]",33.8
9,"O=C(Nc1ccc(N2CCOCC2)cc1)N1CCC(c2ncnc3cc(N4CCNCC4)ccc23)CC1 [Compound 140, 4-(7-piperazin-1-yl-quinazolin-4-yl)-piperidine-1-carboxylic acid (4-morpholin-4-yl-phenyl)-amide]",> 42
10,"CC(=O)N1CCN(c2ccc3c(C4CCN(C(=O)Nc5ccc(N6CCOCC6)cc5)CC4)ncnc3c2)CC1 [Compound 141, 4-[7-(4-Acetyl-piperazin-1-yl)-quinazolin-4-yl]-piperidine-1-carboxylic acid (4-morpholin-4-yl-phenyl)-amide]",15
11,"CS(=O)(=O)N1CCN(c2ccc3c(C4CCN(C(=O)Nc5ccc(N6CCOCC6)cc5)CC4)ncnc3c2)CC1 [Compound 142, 4-[7-(4-Methanesulfonyl-piperazin-1-yl)-quinazolin-4-yl]-piperidine-1-carboxylic acid (4-morpholin-4-yl-phenyl)-amide]",17.4
12,"CN(C)C(=O)N1CCN(c2ccc3c(C4CCN(C(=O)Nc5ccc(N6CCOCC6)cc5)CC4)ncnc3c2)CC1 [Compound 143, 4-{4-[1-(4-Morpholin-4-yl-phenylcarbamoyl)-piperidin-4-yl]-quinazolin-7-yl}-piperazine-1-carboxylic acid dimethylamide]",7.6
13,"CN(C)CC(=O)N1CCN(c2ccc3c(C4CCN(C(=O)Nc5ccc(N6CCOCC6)cc5)CC4)ncnc3c2)CC1 [Compound 144, 4-{7-[4-(2-Dimethylamino-acetyl)-piperazin-1-yl]-quinazolin-4-yl}-piperidine-1-carboxylic acid (4-morpholin-4-yl-phenyl)-amide]",14.2
14,"O=C(Nc1ccc(N2CCOCC2)cc1)N1CCC(c2ncnc3cc(N4CCOCC4)ccc23)CC1 [Compound 145, 4-(7-Morpholin-4-yl-quinazolin-4-yl)-piperidine-1-carboxylic acid (4-morpholin-4-yl-phenyl)-amide]",21.1
15,"CS(=O)(=O)CCNc1ccc2c(C3CCN(C(=O)Nc4ccc(N5CCOCC5)cc4)CC3)ncnc2c1 [Compound 146, 4-[7-(2-Methanesulfonyl-ethylamino)-quinazolin-4-yl]-piperidine-1-carboxylic acid (4-morpholin-4-yl-phenyl)-amide]",> 42
16,"O=C(Nc1ccc(N2CCCC2)cc1)N1CCC(c2ncnc3cc(OCCN4CCOC4=O)ccc23)CC1 [Compound 147, 4-{7-[2-(2-Oxo-oxazolidin-3-yl)-ethoxy]-quinazolin-4-yl}-piperidine-1-carboxylic acid (4-pyrrolidin-1-yl-phenyl)-amide]",2.73
17,"O=C(Nc1ccc(N2CCOCC2)cc1)N1CCC(c2ncnc3cc(OCCN4CCOC4=O)ccc23)CC1 [Compound 148, 4-{7-[2-(2-Oxo-oxazolidin-3-yl)-ethoxy]-quinazolin-4-yl}-piperidine-1-carboxylic acid (4-morpholin-4-yl-phenyl)-amide]",26.7
18,"CN(C)[C@@H]1CCN(c2ccc3c(C4CCN(C(=O)Nc5ccc(N6CCCC6)cc5)CC4)ncnc3c2)C1 [Compound 149, (R)-4-[7-(3-Dimethylamino-pyrrolidin-1-yl)-quinazolin-4-yl]-piperidine-1-carboxylic acid (4-pyrrolidin-1-yl-phenyl)-amide]",7.26
19,"CN(C)[C@@H]1CCN(c2ccc3c(C4CCN(C(=O)Nc5ccc(N6CCOCC6)cc5)CC4)ncnc3c2)C1 [Compound 150, (R)-4-[7-(3-Dimethylamino-pyrrolidin-1-yl)-quinazolin-4-yl]-piperidine-1-carboxylic acid (4-morpholin-4-yl-phenyl)-amide]",> 42
20,"CN1CCC[C@H]1COc1ccc2c(C3CCN(C(=O)Nc4ccc(N5CCCC5)cc4)CC3)ncnc2c1 [Compound 151, (S)-4-[7-(1-Methyl-pyrrolidin-2-ylmethoxy)-quinazolin-4-yl]-piperidine-1-carboxylic acid (4-pyrrolidin-1-yl-phenyl)-amide]",> 42
21,"O=C(Nc1ccc(N2CCCC2)cc1)N1CCC(c2ncnc3cc(OCCN4CCC[C@H]4CO)ccc23)CC1 [Compound 152, (S)-4-{7-[2-(2-Hydroxymethyl-pyrrolidin-1-yl)-ethoxy]-quinazolin-4-yl}-piperidine-1-carboxylic acid (4-pyrrolidin-1-yl-phenyl)-amide]",32.7
22,"O=C(Nc1ccc(N2CCOCC2)cc1)N1CCC(c2ncnc3cc(OCCN4CCC[C@H]4CO)ccc23)CC1 [Compound 153, (S)-4-{7-[2-(2-Hydroxymethyl-pyrrolidin-1-yl)-ethoxy]-quinazolin-4-yl}-piperidine-1-carboxylic acid (4-morpholin-4-yl-phenyl)-amide]",> 42
23,"CC(=O)N1CC[C@@H](Oc2ccc3c(C4CCN(C(=O)Nc5ccc(N6CCCC6)cc5)CC4)ncnc3c2)C1 [Compound 154, (R)-4-[7-(1-Acetyl-pyrrolidin-3-yloxy)-quinazolin-4-yl]-piperidine-1-carboxylic acid (4-pyrrolidin-1-yl-phenyl)-amide]",> 42
